≈ marks a conversion by molar mass, not a printed value.
Tests used:
Aqueous solubility = conditions: water
[1] = background art; cited from earlier work
[2] = background art; cited from earlier work; remark: listed apart in the source
adult worms = conditions: background art; cited from earlier work
microfilariae = conditions: background art; cited from earlier work

| SMILES | solubility (Aqueous solubility) [µg/mL] | pain and inflammation on injection [1] | absorption [2] | activity against adult worms (macrofilaricidal) (adult worms) | activity against microfilariae (microfilariae) |
| --- | --- | --- | --- | --- | --- |
| COC(=O)Nc1nc2cc(C(=O)c3ccc(F)cc3)ccc2[nH]1 [Flubendazole, methyl [5-(4-fluorobenzoyl)-1H-benzimidazol-2-yl]carbamate] | 45 (≈ 144 µM) | cause pain and inflammation on injection | poorly absorbed |  |  |
| Cc1ccc(C(=O)Nc2ccc(S(=O)(=O)O)c3cc(S(=O)(=O)O)cc(S(=O)(=O)O)c23)cc1NC(=O)c1cccc(NC(=O)Nc2cccc(C(=O)Nc3cc(C(=O)Nc4ccc(S(=O)(=O)O)c5cc(S(=O)(=O)O)cc(S(=O)(=O)O)c45)ccc3C)c2)c1 [Suramin] |  |  |  | macrofilaricidal action |  |
| CC[C@H](C)[C@H]1O[C@]2(CC[C@@H]1C)C[C@@H]1C[C@@H](C/C=C(\C)[C@@H](O[C@H]3C[C@H](OC)[C@@H](O[C@H]4C[C@H](OC)[C@@H](O)[C@H](C)O4)[C@H](C)O3)[C@@H](C)/C=C/C=C3\CO[C@@H]4[C@H](O)C(C)=C[C@@H](C(=O)O1)[C@]34O)O2 [ivermectin] |  |  |  | without effect on adult worms | outstanding activity against microfilariae |
| COC(=O)Nc1nc2ccc(C(=O)c3ccccc3)cc2[nH]1 [mebendazole] |  | cause pain and inflammation on injection | poorly absorbed |  |  |
